Here are results for 21 compounds from ChEMBL document CHEMBL5260860, “Simple monocyclic pyrimidine analogs as microtubule targeting agents binding to the colchicine site” (Bioorg Med Chem, 2023).

Test [1] has as its system SK-OV-3. The test is described as follows: Antiproliferative activity against wild type human SK-OV-3 cells assessed as inhibition of cell growth by SRB assay. Format: functional, cell-based. (The SRB assay estimates cell density from bound dye.)
Test [2] relates to HeLa. Description: Antiproliferative activity against wild type human HeLa cells assessed as inhibition of cell growth by SRB assay. The class given is functional, cell-based.
Test [3] can be described thus: Selectivity ratio of EC50 for induction of microtubule depolymerization in rat A10 cells to IC50 for antiproliferative activity against human MDA-MB-435 cells.
Test [4] deals with HeLa. Description: Antiproliferative activity against human HeLa cells overexpressing betaIII-tubulin assessed as inhibition of cell growth by SRB assay. The class given is functional, cell-based.
Test [5] can be described thus: Induction of microtubule depolymerization in rat A10 cells incubated for 18 hrs by indirect immunofluorescence analysis. The class given is cell-based.
Test [6] relates to MDA-MB-435. Description: Antiproliferative activity against human MDA-MB-435 cells assessed as inhibition of cell growth by SRB assay. The class given is functional, cell-based.
The target of test [7] is Tubulin (Bos taurus) (UniProt Q6B856+Q862L2+Q862F3). Description: Displacement of [3H]colchicine from bovine brain tubulin at 5 uM incubated for 10 mins. The class given is tissue-based.
The subject of test [8] is SK-OV-3. The test is described as follows: Antiproliferative activity against human SK-OV-3 cells overexpressing MDR-1-M6/6 assessed as inhibition of cell growth by SRB assay. The class given is functional, cell-based.
Test [9] has as its system MDA-MB-435. The test is described as follows: Antitumor activity against human MDA-MB-435 cells xenografted in nude mouse assessed as reduction in tumor volume at 15 mg/kg, ip administered 3 times a week for 2 weeks and measured on day 14. Format: functional, organism-based. The settings on record: time 14.0 day.
In test [10] the test system is MDA-MB-435. The test is described as follows: Antitumor activity against human MDA-MB-435 cells xenografted in nude mouse at 15 mg/kg, ip administered 3 times a week for 2 weeks and measured on day 14. The settings on record: time 14.0 day. The class given is functional, organism-based.
Test [11] concerns the target Tubulin (Bos taurus, UniProt Q6B856+Q862L2+Q862F3). Description: Inhibition of bovine brain tubulin assembly. Format: tissue-based.
Test [12] deals with MDA-MB-435. The test is described as follows: Antitumor activity against human MDA-MB-435 cells xenografted in nude mouse at 50 mg/kg, ip administered 3 times a week for 2 weeks and measured on day 14. The class given is functional, organism-based. As to conditions: time 14.0 day.
In test [13] the test system is MDA-MB-435. Description: Antitumor activity against human MDA-MB-435 cells xenografted in nude mouse assessed as reduction in tumor volume at 50 mg/kg, ip administered 3 times a week for 2 weeks and measured on day 14. Format: functional, organism-based. As to conditions: time 14.0 day. On the technique in general: In xenograft studies the graft and the host belong to different species.

Calls of active or inactive are those of the source. The calls are words filed in the database; no cut-off is given here. Where only a bound is given, the exact number is not on record here.

As usually defined, the IC50 is the point on the concentration scale where inhibition reaches its midpoint. A word on the EC50: it is the concentration at which the effect is half-maximal. High values mean a need for much substance, low ones an effect from little substance. As a reminder, the inhibition is the drop in the measured response relative to a control, in per cent. Consider `CCCCNc1nc(C)nc(N(C)c2ccc(OC)cc2)c1Cl`, for which the IC50 in test [1] is 0.122 µM; in [2], 0.0662 µM; in [4], 0.105 µM; in test [6], 0.0844 µM; in test [8], 0.165 µM. Moreover, the Selectivity ratio in test [3] is 5. For the same compound, in [5], a half-maximal response (EC50) required 0.432 µM. For the same compound, the inhibition in test [7] is 84%.
On to `COc1ccc(N(C)c2nc(C)nc(N)c2Cl)cc1`, for which the IC50 amounted to 0.133 µM in test [1]; 0.0863 µM in [2]; 0.112 µM in test [4]; 0.0713 µM in test [6]; 0.18 µM in [8]. The Selectivity ratio in test [3] stood at 21. For the same compound, the EC50 in [5] came to 1.5 µM. Moreover, the inhibition in test [7] was 76%.
Take `CC(=O)O[C@H]1C(=O)[C@@]2(C)[C@H]([C@H](OC(=O)c3ccccc3)[C@]3(O)C[C@H](OC(=O)[C@H](O)[C@@H](NC(=O)c4ccccc4)c4ccccc4)C(C)=C1C3(C)C)[C@]1(OC(C)=O)CO[C@@H]1C[C@@H]2O` [PACLITAXEL]: in [1], the concentration for half-maximal inhibition (IC50) worked out at 0.005 µM. Further, the outcome in [9] was Active. The outcome in test [10] was inactive.
`Cc1nc(N)c(Cl)c(N(C)c2ccc3c(c2)CCO3)n1`: the half-maximal inhibitory concentration (IC50) in [1] came to 0.742 µM; in test [2], 0.49 µM; in test [4] it was 0.415 µM; in test [6] it was 0.62 µM; in test [8] it was 1.05 µM. Further, the Selectivity ratio in test [3] worked out at 15. The compound further registered an EC50 in [5] of 9.2 µM. Further, the inhibition in test [7] turned out to be 60%.
With `COc1cccc2cc(N(C)c3nc(C)nc(N)c3Cl)ccc12`, the 50% inhibitory concentration (IC50) in test [1] was found to be 0.0647 µM; in test [2], 0.0671 µM; in test [4], 0.0702 µM; in test [6] it was 0.0561 µM; in [8], 0.193 µM. For the same compound, in test [3], the Selectivity ratio is listed as 15. Besides, the response in [5] was half-maximal at 0.831 µM (EC50). The inhibition in test [7] came to 74%.
Consider `COc1ccc(N(C)c2nc(C)nc(NC(C)C)c2Cl)cc1`, for which the IC50 was 1.4 µM in test [1]; 0.8 µM in [2]; 1 µM in [4]; 0.685 µM in test [6]; 1.6 µM in [8]. The Selectivity ratio in test [3] is given as 11. The same compound came in with an EC50 in test [5] of 7.4 µM.
`COc1ccc(N(C)c2nc(C)nc(NC(C)=O)c2Cl)cc1` had an EC50 in test [5] greater than 15 µM. Moreover, the IC50 in test [6] is 3.7 µM.
Consider `COc1ccc(N(C)c2nc(C)nc3[nH]ccc23)cc1`, for which the IC50 in test [11] worked out at 2.6 µM. In addition, the Selectivity ratio in [3] was found to be 32. This compound also yielded a half-maximal effective concentration (EC50) in test [5] of 5.8 µM. This compound also displayed an inhibition in [7] of 70%.
Consider `COc1ccc(N(C)c2nc(C)nc(N)c2C)cc1`, for which the IC50 is 0.312 µM in test [1]; 0.229 µM in test [2]; 0.25 µM in [4]; 0.206 µM in [6]; greater than 0.5 µM in [8]. In addition, the Selectivity ratio in test [3] is greater than 39. The compound also yielded a concentration for a half-maximal effect (EC50) in [5] greater than 8 µM. This compound also came in with an inhibition in [7] of 45%.
As for `COc1ccc2c(c1)CCCN2c1nc(C)nc(NC(=O)C(C)(C)C)c1Cl`, the IC50 in test [1] is 3.3 µM; in test [2] it was 2.6 µM; in test [4], 2.6 µM; in test [6], 2.1 µM. The compound also displayed a concentration giving a half-maximal response (EC50) in test [5] greater than 10 µM.
On to `CCCNc1nc(C)nc(N(C)c2ccc(OC)cc2)c1Cl`, for which the 50% inhibitory concentration (IC50) in test [1] worked out at 0.0342 µM; in [2], 0.0279 µM; in test [4], 0.0338 µM; in [6], 0.0244 µM; in test [8], 0.0392 µM. For the same compound, in test [3], the Selectivity ratio is 5. In addition, in test [12], the outcome was inactive. The same compound had a 50% effective concentration (EC50) in test [5] of 0.123 µM. Further, the inhibition in test [7] is 82%. In addition, the outcome in [13] was Active.
Take `CCNc1nc(C)nc(N(C)c2ccc(OC)cc2)c1Cl`: the half-inhibitory concentration (IC50) in test [1] turned out to be 0.0779 µM; in [2], 0.0418 µM; in test [4] it was 0.0617 µM; in test [6], 0.0504 µM; in test [8] it was 0.0935 µM. Further, the Selectivity ratio in test [3] is on record as 6. For the same compound, the EC50 in [5] is 0.305 µM. In addition, in [7], the inhibition was found to be 74%.
Consider `CNc1nc(C)nc(N(C)c2ccc(OC)cc2)c1Cl`, for which the IC50 in [1] came out at 0.118 µM; in test [2], 0.0876 µM; in test [4] it was 0.107 µM; in test [6], 0.103 µM; in test [8], 0.169 µM. Moreover, in [3], the Selectivity ratio stood at 20. The compound also showed an EC50 in test [5] of 2.1 µM. The compound also displayed an inhibition in [7] of 68%.
In test [5], `COc1ccc(N(C)c2nc(C)nc(NCc3ccccc3)c2Cl)cc1` gave a 50% effective concentration (EC50) greater than 10 µM. Besides, the inhibition in test [7] stood at 14%.
Take `CCCNc1nc(C)nc(N(C)c2ccc3c(OC)cccc3c2)c1Cl`: the IC50 in [1] was found to be 0.227 µM; in test [2] it was 0.368 µM; in test [4], 0.234 µM; in test [6], 0.221 µM; in test [8] it was 0.362 µM. Besides, the Selectivity ratio in test [3] is 1.2. This compound also yielded an EC50 in test [5] of 0.26 µM. In [7], this compound yielded an inhibition of 61%.
`COc1ccc2c(c1)CCCN2c1nc(C)nc(N)c1Cl`: the 50% inhibitory concentration (IC50) in [1] came out at 0.459 µM; in test [2], 0.312 µM; in test [4], 0.279 µM; in test [6], 0.22 µM; in test [8] it was 0.576 µM. In addition, the Selectivity ratio in [3] was 6.5. In test [5], this compound yielded an EC50 of 1.4 µM. In test [7], this compound showed an inhibition of 61%.
On to `COc1ccc(N(C)c2nc(C)nc(NCC(C)C)c2Cl)cc1`, for which the IC50 in [1] is 0.107 µM; in test [2], 0.0967 µM; in test [4], 0.104 µM; in [6], 0.0781 µM; in test [8] it was 0.117 µM. Besides, the Selectivity ratio in test [3] is 5. The same compound showed a half-maximal effective concentration (EC50) in test [5] of 0.394 µM. In [7], this compound displayed an inhibition of 57%.
`COc1cccc(N(C)c2nc(C)nc(N)c2Cl)c1` registered an EC50 in test [5] greater than 10 µM.
On to `CSc1ccc(N(C)c2nc(C)nc(N)c2Cl)cc1`, for which the 50% inhibitory concentration (IC50) was 0.277 µM in test [1], 0.158 µM in test [2], 0.163 µM in test [4] and 0.14 µM in test [6]. The same compound came in with an EC50 in [5] of 3.3 µM. The same compound returned an inhibition in test [7] of 71%.
In turn, `COc1ccc(/C=C\c2cc(OC)c(OC)c(OC)c2)cc1O` [COMBRETASTATIN A4] returned an EC50 in [5] of 0.0098 µM.
Regarding `COc1ccc(Nc2nc(C)nc(N)c2Cl)cc1`, in test [5], the EC50 was greater than 10 µM.
